Source: PubChem BioAssay AID2043 (NMMLSC, 2009)
Active and inactive are the calls of the source. The rule behind the calls is not given here.

Molecular target: GTPase HRas, activated mutant (human)
Assay: inhibitors of GTP binding, activated Ras, SAR follow-up, biochemical, additional analogs, activated mutant, multiplex flow cytometry, Ki (AID 2043)
Conditions: bead-based flow cytometry multiplex, fluorescent GTP binding; for Ki: measured here: Ki derived from EC50

Row | EC50 | Ki [nM] | SMILES
1 | inactive | 1340 | O=C(C#Cc1ccccc1)c1ccc(F)cc1
2 | inactive | 30 | CC(C(=O)O)c1cccc(C(=O)c2ccccc2)c1 (stereo unspecified)
3 | inactive | 560 | O=C(C#Cc1ccccc1)c1ccccc1[N+](=O)[O-]
